Experimental data as given in patent US7439024B2, “Methods and kits for diagnosing or monitoring autoimmune and chronic inflammatory diseases” (The United States of America as represented by the …, priority 2005, dated 2008).

Experiments:
[1] = system: CD70; details: PHA-stimulated purified T cells, 3 days after treatment, oligonucleotide arrays, 2 independent experiments, mean±SEM
[2] = system: CD70 mRNA; assay: Real time RT-PCR of CD70 transcripts relative to β-actin in drug-treated T cells; format: cell-based, human; details: for CD70 transcripts relative to β-actin, normalized to the untreated control: CD4+ T cells stimulated with anti-CD3 + anti-CD28, 5 μm 5-azaC, 50 μm Pca, 20 μm Hyd, 40 μm U0126 or 25 μm PD98059 for 3 days, FIG. 9; for expression of CD70 mRNA relative to that of beta-actin vs untreated cells: T cells, real time RT-PCR, FIG. 1B
Experimental: Cells and cell culture. Peripheral blood mononuclear cells (PBMCs) were isolated by density-gradient centrifugation. T cells were then isolated by E-rosetting (See, e.g., Golbus et at., Clin Immunol Immunopathol 46, 129 (1988)). […] Where indicated, the cells were cultured in RPMI 1640/10% fetal calf serum (FCS) supplemented with interleukin-2 (IL-2) (See, e.g., Richardson et at., Clin Immunol Immunopathol 55, 368 (1990)), in round-bottomed 5-ml culture tubes (FALCON). Cells were stimulated with 1 μg/ml of PHA (REMEL) for 16 hours, then cultured in 24-well plates at a density of 1×10^6 for an additional 72 hours in the presence of 2-deoxy-5-azaC or 5-azaC (SIGMA-ALDRICH), procainamide (SIGMA-ALDRICH), hydralazine (SIGMA-ALDRICH), or the MEK inhibitors U0126 (PROMEGA) or PD98059 (PROMEGA […]). In other studies, PHA-stimulated PBMCs were cultured in RPMI 1640/10% FCS and treated with indomethacin, chloroquine, hydrocortisone, and 6-mercaptopurine (6-MP) (all from SIGMA-ALDRICH). TT48E, a cloned, CD4+, tetanus toxoid-reactive human T cell line, was cultured as previously described (Comacchia et al., J Immunol 140, 2197 (1988); Richardson et al., Arthritis Rheum 35, 647 (1992)).
(§1) In other studies, T cells were isolated by negative selection using magnetic beads and instructions provided by the manufacturer (Pan T cell Isolation Kit, Miltenyi), and the CD4+ or CD8+ subset was similarly isolated by magnetic cell sorting. […] Purified human CD4+ T cells were first stimulated with plate bound anti-CD3 and soluble anti-CD28.

[3] = system: CD70; assay: Flow cytometric analysis of CD70 expression on T cells treated with DNA methylation inhibitors; format: cell-based, human; details: for increase of CD70 expression on T cell clone TT48E: 3 days, 6 serial experiments; for increase of CD70 MFI on CD4+ T cells: CD4+ T cell subset; for CD70 expression on PHA-stimulated T cells, treated vs untreated: polyclonal T cells, 1 μM 5-azaC 3 days, procainamide increasing dosage, 25 μM PD98059 and dose response, 40 μM U0126 and dose response, FIG. 2; for CD70 expression on CD4+ T cells: summary statement in Example 8
[4] = system: autologous B cells; assay: T cell and B cell costimulation assay, IgG ELISA of supernatants; format: cell-based, human; details: P<0.05; for IgG produced by B cells cultured with drug-treated cloned T cells vs untreated T cells: TT48E cloned CD4+ T cell line treated 3 days, autologous B cells, without PWM, FIG. 4; for IgG secreted by B cells cultured with drug-treated T cells vs same numbers of untreated T cells: unfractionated PHA-stimulated T cells treated 3 days, cultured with PWM and autologous B cells 8 days, FIG. 3
Experimental: T cell and B cell costimulation assays. E-rosette-purified T cells were stimulated for 16 hours with PHA and then treated with the indicated chemicals for an additional 72 hours as described above. Where indicated, T cell subsets were isolated by negative selection using magnetic beads (Miltenyi). B cells (1-4×10^5) enriched by negative selection using magnetic beads (Miltenyi) and assessed to be 70-85% pure using PE-conjugated anti-human CD21 (PHARMINGEN), were added to washed, drug-treated autologous T cells, at T cell to B cell ratios of 4:1, 2:1, 1:1, 1:2, and 1:4. Where indicated, 0.625 μg/ml of PWM (ALDRICH) was added. The cells were cultured in RPMI 1640/10% FBS/penicillin/streptomycin for 8 days in 96-well roundbottomed plates (Costar) containing a 200 μl total volume (performed in duplicate). Cells were supplemented with 50 μl of medium on day 4. Where indicated, 1 μg/ml of anti-CD70 monoclonal antibody (HNE51) (DAKO) was added to the cultures. TT48E cells were similarly stimulated with PHA (1 μg/ml) for 18 hours, treated with the indicated drugs for 3 days, then similarly cultured with autologous B cells for 8 days. Where indicated, the TT48E cells were pretreated with 1 μg/ml of anti-CD70 for 30 minutes at […], then washed and added to the B cells, according to protocols described by others (See, e.g., Kobata et at., Proc Natl Acad Sci U S A 92, 11249 (1995)).
IgG enzyme-linked immunosorbent assays (ELISAs). IgG was measured in the supernatants of the T cell-B cell cultures (See, e.g., Richardson et al., Clin Immunol Immunopathol 55, 368 (1990)). Briefly, 96-well flatbottomed polystyrene plates (Costar) were coated with 1 μg/ml of goat anti-human IgG (Southern Biotech) and washed. Unreacted combining sites were sealed with 3% bovine serum albumin (BSA) in phosphate buffered saline (PBS) by incubation at 4° C. for 16 hours. Pooled supernatants from duplicate wells were diluted 1:5 in PBS/1% BSA, and 50 μl was added to the wells. Serial dilutions of purified human IgG (Sigma) were used for quantitation. Following incubation and washing, goat anti-human IgG conjugated with horseradish peroxidase (Southern Biotech) was added, and cells were incubated for 2 hours at room temperature. The wells were washed 3 times with PBS/0.1% Tween 20, and color was developed using Sigma Fast tablets. The plates were read at 405 nm using a SpectraMax spectrophotometer (Molecular Devices). All determinations were performed in quadruplicate.
Since CD70 participates in T cell-dependent B cell stimulation (See e.g., Kobata et al., Proc Natl Acad Sci USA 92, 11249 (1995)), the effects of DNA methylation inhibitors on CD70-dependent B cell help were examined. […] Eight days later, total IgG in the supernatants was measured by ELISA. […]

[5] = system: CD70 promoter; assay: Bisulfite sequencing of the CD70 promoter in drug-treated CD4+ T cells; format: cell-based, human; details: for methylation of the 10 CG pairs in the CD70 promoter region between −515 and −423: CD4+ T cells stimulated with anti-CD3 and anti-CD28, vs stimulated untreated controls, FIGS. 13, 14
From the text: as §1
Bisulfite sequencing. The putative CD70 promoter was identified using the published CD70 cDNA sequence and Tfsitescan software. Deoxycytosine (dC) and deoxymethylcytosine (d^mC) bases in the gene promoter and 5′ flanking sequences were identified by bisulfite treatment of purified DNA followed by nested PCR amplification of 3 sequential fragments to span the entire region. The primers were designed to avoid CG pairs and to account for the conversion of dC to dU by the bisulfite. EcoRI sites were added to the forward primers, and XbaI to the reverse, to facilitate cloning. The amplified fragments were then cloned into PBS+, and 5 clones sequenced for each fragment. The primers used were: […]
The effect of lupus and DNA methylation inhibitors on a regulatory element in the CD70 promoter was examined. DNA was isolated from the CD4+ T cells of 7 healthy individuals or 6 lupus patients, bisulfite treated, the region from −466-−515, containing 6 CG pairs was amplified by PCR, and 5 fragments sequenced from each individual. The average methylation status of the 6 CG pairs for healthy versus lupus individuals is shown (FIG. 8, NI and Lupus, respectively). CD4+ T cells from 5 individuals were also stimulated with PHA, treated with the irreversible DNA methyltransferase inhibitor 5-azacytidine (5-azaC), and the methylation status of the 6 CG pairs similarly analyzed from the 25 fragments sequenced (FIG. 8, 5-azaC). […] Results are presented as the mean±SEM of the average methylation of the 6 CG pairs, measured from the 10-35 determinations/group.
The effects of the DNA methylation inhibitors on the methylation status of this region were then compared. […] Again, 5 cloned fragments were sequenced from each control, for a total of 35 determinations per CG pair. […] FIG. 14 compares the average methylation for the 10 CG pairs (−515 to −423) in the T cells treated with DNA methylation inhibitors relative to stimulated, untreated controls.

[6] = system: CD70; assay: CD70 expression on CD4+ cells of PBMCs cultured with medications commonly used to treat lupus (flow cytometry); format: cell-based, human; details: PBMCs with or without PHA, 24 hours, graded concentrations 1-100 μM

Row | SMILES | CD70 transcripts relative to β-actin, normalized to the untreated control [2] | CD70 expression on PHA-stimulated T cells, treated vs untreated [3] | CD70 expression on CD4+ T cells [3] | methylation of the 10 CG pairs in the CD70 promoter region between −515 and −423 [5] | CD70 expression on stimulated or unstimulated CD4+ cells [6] | also measured
1 | Nc1ncn([C@H]2C[C@H](O)[C@@H](CO)O2)c(=O)n1 [2-deoxy-5-azaC] |  |  |  |  |  | CD70 expression increase in treated cells relative to untreated controls [1]: 2.6±0.6 fold
2 | Nc1ncn([C@@H]2O[C@H](CO)[C@@H](O)[C@H]2O)c(=O)n1 [5-azaC, 5-azacytidine] | increase CD70 transcripts | small increase | increased CD70 expression | hypomethylated compared to controls |  | expression of CD70 mRNA relative to that of beta-actin vs untreated cells [2]: increased the expression of CD70 mRNA; increase of CD70 expression on T cell clone TT48E ([3]; 1 μM, P=0.048): 1.69±0.33 fold; increase of CD70 MFI on CD4+ T cells ([3]; 1 μM, P=0.025, n=5): 1.53±0.45 fold; concentration producing the greatest effect on CD70 expression ([3]; range of 5-azaC concentrations, P=0.001 overall, n=5 experiments, FIG. 2B): 1 µM; IgG produced by B cells cultured with drug-treated cloned T cells vs untreated T cells [4]: greater amounts of IgG; IgG secreted by B cells cultured with drug-treated T cells vs same numbers of untreated T cells [4]: greater amounts of IgG; CD70 expression increase in treated cells relative to untreated controls [1]: > 2 fold
3 | Sc1ncnc2nc[nH]c12 [6-MP, 6-mercaptopurine] |  |  |  |  | No increase in CD70 expression | 
4 | COc1cccc(-c2cc(=O)c3ccccc3o2)c1N [PD98059] | increase CD70 transcripts | increase in CD70 expression with treatment | increased CD70 expression | appears to demethylate |  | increase of CD70 MFI on CD4+ T cells ([3]; 25 μM, P=0.032, n=3): 1.63±0.43 fold
5 | N#CC(=C(/N)Sc1ccccc1N)/C(C#N)=C(\N)Sc1ccccc1N [U0126] | increase CD70 transcripts | increase in CD70 expression with treatment | increased CD70 expression | appears to demethylate |  | expression of CD70 mRNA relative to that of beta-actin vs untreated cells [2]: increased the expression of CD70 mRNA; increase of CD70 expression on T cell clone TT48E ([3]; 40 μM, P=0.004): 1.87±0.37 fold; increase of CD70 MFI on CD4+ T cells ([3]; 40 μM, P=0.039, n=4): 3.20±0.44 fold; increase of CD70 MFI in T cells treated with U0126 (FIG. 2I) ([3]; P=0.085, stated in the passage on the smaller CD8+ increase): 2.83±0.95 fold; IgG produced by B cells cultured with drug-treated cloned T cells vs untreated T cells [4]: greater amounts of IgG; IgG secreted by B cells cultured with drug-treated T cells vs same numbers of untreated T cells [4]: greater amounts of IgG
6 | CCN(CC)CCCC(C)Nc1ccnc2cc(Cl)ccc12 (stereo not drawn) [chloroquine] |  |  |  |  | No increase in CD70 expression | 
7 | C[C@]12CCC(=O)C=C1CC[C@@H]1[C@@H]2[C@@H](O)C[C@@]2(C)[C@H]1CC[C@]2(O)C(=O)CO [hydrocortisone] |  |  |  |  | No increase in CD70 expression | 
8 | COc1ccc2c(c1)c(CC(=O)O)c(C)n2C(=O)c1ccc(Cl)cc1 [indomethacin] |  |  |  |  | No increase in CD70 expression | 
9 | CCN(CC)CCNC(=O)c1ccc(N)cc1 [procainamide] | increase CD70 transcripts | increase in the ratio of the mean fluorescence intensity (MFI) of CD70 expression | increased CD70 expression | appears to demethylate |  | methylation status of the CD70 promoter region from −466-−515 containing 6 CG pairs ([5]; PHA-stimulated CD4+ T cells, FIG. 8): demethylate this region
